The values below come from US10736907B2, “Use of sugar-alcohols in tibolone compositions” (Mithra Pharmaceuticals S.A., priority 2016, dated 2020).

The data set in a line: Tibolone impurities (A, B, C, total except C) in tablets by HPLC just after production and during storage (stability). It counts as physicochemical. On the procedure: Tibolone tablets were manufactured by a conventional direct compression process. Briefly, the raw materials were weighed, sieved and homogenized. Following homogenization, the mixture was compressed into tablets. Just after production (i.e. at t=0), the tablets were analyzed for tibolone impurities by a chromatography (HPLC) method that allows a suitable separation between the peaks of impurities A, B and C (Tibolone degradation products described in the current European Pharmacopeia Monograph 1739) under the following conditions: • Equipment: HPLC system • Pre-column: Universal RP, EC 4/3 • Stationary phase: Nucleodur 100-3 C18ec Particulars' diameter: 3 μm • Length: 150 mm • Internal diameter: 4.6 mm • Mobile phase: • Solvent A: water for chromatography R • Solvent B: Acetonitrile for chromatography R • Gradient program: […]
The tablets were packed into PVC/Aluminium blisters and stored either 1) at a temperature of 25° C. and a relative humidity of 60% (long term stability conditions for Zone II), 2) at a temperature of 40° C. and a relative humidity of 75% (accelerated stability conditions), or 3) at ambient conditions (laboratory conditions, less than 25° C., no humidity control). After 1, 2, 3 and/or 6 months of storage (up to 18 months for batches #2 and #3), the tablets were analyzed for tibolone impurities.

Read-outs that look alike come from different tables or passages of the source.

For the compound `CCCCCCCCCCCCCCCC(=O)OC[C@H](O)[C@H]1OC(=O)C(O)=C1O` [ascorbyl palmitate], the “stabilizing effect on tibolone in the tablets (in words)” value is on record as “additional stabilizing effect”.

On to `O=C(O)CN(CCN(CC(=O)O)CC(=O)O)CC(=O)O` [EDTA], for which, for the setting “excipient added to tibolone tablets”, the “stabilizing effect on tibolone in the tablets (in words)” value is on record as “does not further stabilize”.
